Measured values as given in PubChem BioAssay (NCI).
Where “and” joins values, the source holds several entries; their conditions need not be identical. Equal entries are not always repeated.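 Where inhibition never reached the appropriate level, the endpoint shown equals the highest concentration tested. Otherwise, values were interpolated linearly from a five-concentration, 48-hour dose response in 96-well plates. Abbreviation: GI50, concentration required for 50% inhibition of growth. Definition used: TGI = concentration required for complete inhibition of growth.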

How the values were obtained:
Experiment in all cases: NCI anticancer screen, dose series, 48 h
KM12 colon = tested on: KM12 colon
TK-10 renal = tested on: TK-10 renal
NCI-H460 lung = tested on: NCI-H460 lung
EKVX NSCLC = tested on: EKVX NSCLC
MOLT-4 leukemia = tested on: MOLT-4 leukemia
SR leukemia = tested on: SR leukemia
MDA-MB-231 breast = tested on: MDA-MB-231 breast
MDA-MB-435 = tested on: MDA-MB-435
ACHN renal = tested on: ACHN renal
SF-539 CNS = tested on: SF-539 CNS

SMILES | GI50 (KM12 colon) | TGI (KM12 colon) | GI50 (TK-10 renal) | TGI (TK-10 renal) | GI50 (NCI-H460 lung) | TGI (NCI-H460 lung) | GI50 (EKVX NSCLC) | TGI (EKVX NSCLC) | GI50 (MOLT-4 leukemia) | TGI (MOLT-4 leukemia) | GI50 (SR leukemia) | TGI (SR leukemia) | GI50 (MDA-MB-231 breast) | TGI (MDA-MB-231 breast) | GI50 (MDA-MB-435) | TGI (MDA-MB-435) | GI50 (ACHN renal) | TGI (ACHN renal) | GI50 (SF-539 CNS) | TGI (SF-539 CNS)
CN1CCN(C(=O)OCc2nc3c(N4CCOCC4)nc(Cl)nc3n2C)CC1 | 2.05 µM | 6.08 µM | 1.59 µM | 3.05 µM | 1.64 µM | 3.51 µM | 1.59 µM | 2.98 µM | 1.19 µM | 4.69 µM | 0.241 µM | 1.33 µM | 0.566 µM | 2.22 µM | 1.16 µM | 2.44 µM | 0.831 µM | 2.11 µM | 1.39 µM | 2.73 µM
C=C1C(=O)O[C@H]2[C@H]1CC/C(Cn1cc(-c3ccc(OC)cc3)nn1)=C\CC[C@@]1(C)O[C@@H]21 | 3.51 µM | 14.2 µM | 1.42 µM | 2.85 µM | 8.45 µM | 25.2 µM | 2.47 µM | 10.3 µM | 1.13 µM | 3.66 µM | 0.257 µM | 1.48 µM | 1.44 µM | 3.15 µM | 1.14 µM | 3.24 µM | 0.293 µM | 1.12 µM | 0.346 µM | 1.49 µM
COC(=O)[C@]12CC[C@@H](C)[C@H](C)[C@@H]1C1=CC[C@@H]3[C@@]4(C)C/C(=N\O)[C@H](O)[C@@]5(C)COC(=C45)C[C@@]3(C)[C@]1(C)CC2 | 5.77 µM | 20.2 µM | 18.3 µM | 33.9 µM | 3.29 µM | 10.7 µM | 10.3 µM | 24.3 µM | 2.97 µM | 10.8 µM | 2.33 µM | 5.77 µM | 3.84 µM | 16 µM | 8.28 µM | 22.2 µM | 2.58 µM | 7.41 µM | 9.05 µM | 22.4 µM
Oc1c(CN2CCC(N3CCCCC3)CC2)cc(Cc2cc(CN3CCC(N4CCCCC4)CC3)c(O)c3ncccc23)c2cccnc12 | 0.677 µM | 14.6 µM | 1.14 µM | 10.3 µM | 0.287 µM | 11.5 µM | 0.57 µM | 15.5 µM | 0.3 µM | 6.22 µM | 0.652 µM | 3.74 µM | 0.329 µM | 14.4 µM | 1.77 µM | 6.41 µM | 1.4 µM | 11.7 µM |  | 
CC[C@@H]1C(=O)N(C)c2cnc(Nc3ccc(C(=O)NC4CCN(C)CC4)cc3OC)nc2N1C1CCCC1 | 0.00346 µM and < 0.01 µM | > 10 µM and 5.65 µM | 0.285 µM and 0.123 µM | > 7.36 µM and 5.56 µM | 0.00386 µM and < 0.01 µM | > 10 µM and 6.64 µM | 0.0263 µM and 0.161 µM | > 10 µM and 21.5 µM | 0.00387 µM and < 0.01 µM | 1.39 µM and 0.579 µM | 0.00182 µM and < 0.01 µM |  | 0.00552 µM | 3.21 µM |  |  | 0.148 µM and 0.0895 µM | > 5.11 µM and 2.24 µM | 0.0269 µM and 0.0238 µM | 0.352 µM and 0.583 µM
CC(C)(CC(=O)Nc1ccccc1)C(=O)O |  | > 100 µM |  | > 100 µM |  | > 100 µM |  | > 100 µM |  | > 100 µM |  | > 100 µM |  | > 100 µM |  | > 100 µM |  | > 100 µM |  | > 100 µM
Cc1ccc2c(c1)[n+]([O-])c(N)n[n+]2[O-] |  | > 100 µM |  | > 100 µM |  | > 100 µM |  | > 100 µM |  | > 100 µM |  | > 100 µM |  | > 100 µM |  | > 100 µM |  | > 100 µM |  | > 100 µM
CC[C@@H]1CN(C)[C@H]2Cc3c([nH]c4ccccc34)C(=O)C[C@H]1C2C(=O)OC (stereo partly drawn) |  | > 100 µM |  | > 100 µM |  | > 100 µM |  | > 100 µM |  | > 100 µM |  | > 100 µM |  | > 100 µM |  | > 100 µM |  | > 100 µM |  | > 100 µM
O=C1CCCCN1CCCCC#Cc1ccccc1C#Cc1ccc([N+](=O)[O-])cc1 | 3.78 µM | 15.7 µM | 7.72 µM | 30.5 µM | 2 µM | 4.35 µM | 5.26 µM | 40 µM | 2.79 µM | 9.22 µM | 0.0255 µM | 2.14 µM | 12.8 µM | 51.4 µM | 1.68 µM | 4.83 µM | 3.44 µM | 11.3 µM | 3.13 µM | 12.7 µM
FC(F)(F)c1cccc(Nc2nccc(-c3cnn4nc(-c5ccccc5)ccc34)n2)c1 | 6.46 µM | > 19.6 µM | 9.22 µM | > 19.2 µM | 5.23 µM | 11.1 µM | > 21.2 µM | > 25 µM | > 16.5 µM | > 25 µM | 2.15 µM | > 25 µM | 5.58 µM | > 20.9 µM | 10.4 µM | > 25 µM | 6.71 µM | > 18 µM | 6.59 µM | > 18.7 µM
C=CC(=O)N1CC2(CCN(c3nc(OC4CCN(CCCOC)CC4)nc4c(OCC(F)(F)F)c(-c5c(C)ccc6[nH]ncc56)c(C5CC5)cc34)CC2)C1 | 1.96 µM | 4.04 µM | 3.73 µM | 14.3 µM | 2.09 µM | 4.4 µM | 4.33 µM | 16.9 µM | 1.67 µM | 6.06 µM | 1.75 µM | 4.77 µM | 1.98 µM | 3.94 µM | 1.85 µM | 4 µM | 2.11 µM | 4.44 µM | 1.65 µM | 3.07 µM
Oc1ccc(CN2CCC(N3CCCCC3)CC2)c2cccnc12 | 30.3 µM | > 100 µM | 78.2 µM | > 100 µM | 4.01 µM | > 100 µM | 32.4 µM | > 100 µM | 19.9 µM | > 100 µM | 16.7 µM | > 100 µM | 22.4 µM | > 100 µM | 4.63 µM | > 100 µM | 5.95 µM | > 100 µM |  | 
COc1ccc(-c2cc(=O)c3ccc(O)cc3o2)cc1OC |  | > 100 µM |  | > 100 µM |  | > 100 µM |  | > 100 µM |  | > 100 µM |  | > 100 µM |  | > 100 µM |  | > 100 µM |  | > 100 µM |  | > 100 µM
